In US20150133426A1, “SUBSTITUTED PYRROLOPYRIMIDINES” (BAYER PHARMA AKTIENGESELLSCHAFT, priority 2012, published 2015):

Target: T1, human full-length MKNK1 (Homo sapiens, UniProt Q9BUB5, T385D)
T1 construct: purchased Carna Biosciences 02-145; host or cells: insect cells, baculovirus expression system
Assay: MKNK1 kinase high ATP assay (TR-FRET)
Type: biochemical
Details: high ATP (2 mM), 15 min preincubation with enzyme, GST-MKNK1 (T344D)
Summary of the method: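 GST-tagged full-length human MKNK1 (aa 1-424, T344D), baculovirus-expressed, preincubated 15 min with compound, then reacted 30 min at 22 °C with 2 mM ATP and 0.06 µM biotinylated peptide (final).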

T1 sequence (Q9BUB5 1-424 isoform Q9BUB5-2 T344D): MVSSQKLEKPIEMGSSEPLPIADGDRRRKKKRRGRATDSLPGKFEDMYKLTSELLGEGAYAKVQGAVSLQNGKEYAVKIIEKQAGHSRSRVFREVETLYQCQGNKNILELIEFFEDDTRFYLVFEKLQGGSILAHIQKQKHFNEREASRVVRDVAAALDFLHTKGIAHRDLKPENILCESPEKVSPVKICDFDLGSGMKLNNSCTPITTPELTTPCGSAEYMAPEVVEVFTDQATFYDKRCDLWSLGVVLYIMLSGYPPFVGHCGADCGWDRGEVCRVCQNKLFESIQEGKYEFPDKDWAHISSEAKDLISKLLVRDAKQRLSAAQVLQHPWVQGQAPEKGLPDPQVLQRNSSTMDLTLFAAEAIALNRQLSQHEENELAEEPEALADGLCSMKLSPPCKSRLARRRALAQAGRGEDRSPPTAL

IC50 [nM] | Compound
6 | COc1cc(Cl)c(Cl)cc1Nc1ncnc2[nH]c3c(c12)CC(C(=O)NCCCS(C)(=O)=O)CC3 (racemic) [Example 44, (RS)-4-[(4,5-Dichloro-2-methoxyphenyl)amino]-N-[3-(methylsulfonyl)propyl]-6,7,8,9-tetrahydro-5H-pyrimido[4,5-b]indole-6-carboxamide]
370 | CS(=O)(=O)CCCNC(=O)C1CCc2[nH]c3ncnc(Nc4ccc5c(c4)OCC(=O)N5)c3c2C1 (racemic) [Example 51, (RS)—N-[3-(Methylsulfonyl)propyl]-4-[(3-oxo-3,4-dihydro-2H-1,4-benzoxazin-7-yl)amino]-6,7,8,9-tetrahydro-5H-pyrimido[4,5-b]indole-6-carboxamide]
1040 | CC(C)NC(=O)C1CCc2[nH]c3ncnc(Nc4cc(Cl)ccc4OC(C)C)c3c2C1 (racemic) [Example 225, (RS)-4-{[5-Chloro-2-(propan-2-yloxy)phenyl]amino}-N-(propan-2-yl)-6,7,8,9-tetrahydro-5H-pyrimido[4,5-b]indole-6-carboxamide]
58 | CS(=O)(=O)CCCNC(=O)C1CCc2[nH]c3ncnc(Nc4ccccc4OC4CCOCC4)c3c2C1 (racemic) [Example 79, (RS)—N-[3-(Methylsulfonyl)propyl]-4-{[2-(tetrahydro-2H-pyran-4-yloxy)phenyl]amino}-6,7,8,9-tetrahydro-5H-pyrimido[4,5-b]indole-6-carboxamide]
773 | COCC1(OC)CCc2[nH]c3ncnc(Nc4ccc(F)cc4OC(C)C)c3c2C1 (racemic) [Example 137]
53 | CC(C)NC(=O)C1CCc2[nH]c3ncnc(Nc4ccc(F)cc4OC(C)C)c3c2C1 (racemic) [Example 223, (RS)-4-{[4-Fluoro-2-(propan-2-yloxy)phenyl]amino}-N-(propan-2-yl)-6,7,8,9-tetrahydro-5H-pyrimido[4,5-b]indole-6-carboxamide]
50 | COCC1(OC)CCc2[nH]c3ncnc(Nc4cc5cn[nH]c5cc4OC(C)C)c3c2C1 (racemic) [Example 231, (RS)-6-Methoxy-6-(methoxymethyl)-N-[6-(propan-2-yloxy)-1H-indazol-5-yl]-6,7,8,9-tetrahydro-5H-pyrimido[4,5-b]indol-4-amine]
159 | CCNC(=O)C1CCc2[nH]c3ncnc(Nc4cc(F)ccc4OC)c3c2C1 (racemic) [Example 194, (RS)—N-Ethyl-4-[(5-fluoro-2-methoxyphenyl)amino]-6,7,8,9-tetrahydro-5H-pyrimido[4,5-b]indole-6-carboxamide]
14 | CS(=O)(=O)CCCNC(=O)C1CCc2[nH]c3ncnc(Nc4ccc5[nH]c(=O)sc5c4)c3c2C1 (racemic) [Example 29, (RS)—N-[3-(Methylsulfonyl)propyl]-4-[(2-oxo-2,3-dihydro-1,3-benzothiazol-6-yl)amino]-6,7,8,9-tetrahydro-5H-pyrimido[4,5-b]indole-6-carboxamide]
19 | O=C(NC1CC1)C1CCc2[nH]c3ncnc(Nc4ccc5[nH]ncc5c4)c3c2C1 (racemic) [Example 15, (RS)—N—Cyclopropyl-4-(1H-indazol-5-ylamino)-6,7,8,9-tetrahydro-5H-pyrimido[4,5-b]indole-6-carboxamide]
10800 | COc1cc(N2CCOCC2)ccc1Nc1ncnc2[nH]c3c(c12)CC(C(=O)NCCCS(C)(=O)=O)CC3 (racemic) [Example 71, (RS)-4-{[2-Methoxy-4-(morpholin-4-yl)phenyl]amino}-N-[3-(methylsulfonyl)propyl]-6,7,8,9-tetrahydro-5H-pyrimido[4,5-b]indole-6-carboxamide]
5 | CC(C)Oc1cc2[nH]ncc2cc1Nc1ncnc2[nH]c3c(c12)CCCC3 [Example 126]
1 | CC(C)Oc1cc2[nH]ncc2cc1Nc1ncnc2[nH]c3c(c12)CC(C(=O)NCCCS(C)(=O)=O)CC3 (racemic) [Example 230, (RS)—N-[3-(Methylsulfonyl)propyl]-4-{[6-(propan-2-yloxy)-1H-indazol-5-yl]amino}-6,7,8,9-tetrahydro-5H-pyrimido[4,5-b]indole-6-carboxamide]
2890 | O=C(O)C1CCc2[nH]c3ncnc(Nc4ccccc4OC4CCCC4)c3c2C1 (racemic) [Example 180, (RS)-4-{[2-(Cyclopentyloxy)phenyl]amino}-6,7,8,9-tetrahydro-5H-pyrimido[4,5-b]indole-6-carboxylic acid]
24 | CS(=O)(=O)CCCNC(=O)C1CCc2[nH]c3ncnc(Nc4ccccc4OC4CCCC4)c3c2C1 (racemic) [Example 78, (RS)-4-{[2-(Cyclopentyloxy)phenyl]amino}-N-[3-(methylsulfonyl)propyl]-6,7,8,9-tetrahydro-5H-pyrimido[4,5-b]indole-6-carboxamide]
3400 | COc1ccc(C(F)(F)F)cc1Nc1ncnc2[nH]c3c(c12)CC(C(=O)Nc1ccccc1)CC3 (racemic) [Example 214, (RS)-4-{[2-Methoxy-5-(trifluoromethyl)phenyl]amino}-N-phenyl-6,7,8,9-tetrahydro-5H-pyrimido[4,5-b]indole-6-carboxamide]
≥ 20000 | c1ccc(OC2CCCC2)c(Nc2ncnc3[nH]c4c(c23)CCCC4)c1 [Example 116]

IC50 [nM] | Compound
6160 | COc1cc2nc(C)sc2cc1Nc1ncnc2[nH]c3c(c12)CC(C(=O)NCCCS(C)(=O)=O)CC3 (racemic) [Example 68, (RS)-4-[(5-Methoxy-2-methyl-1,3-benzothiazol-6-yl)amino]-N-[3-(methylsulfonyl)propyl]-6,7,8,9-tetrahydro-5H-pyrimido[4,5-b]indole-6-carboxamide]
≥ 20000 | c1ccc(N2CCOCC2)c(Nc2ncnc3[nH]c4c(c23)CCCC4)c1 [Example 118]
48 | CC(C)Oc1cc(F)ccc1Nc1ncnc2[nH]c3c(c12)CCC3 [Example 70, N-(4-Fluoro-2-isopropoxyphenyl)-5,6,7,8-tetrahydrocyclopenta[4,5]pyrrolo[2,3-d]pyrimidin-4-amine]
≥ 20000 | COc1ccc(F)cc1Nc1ncnc2[nH]c3c(c12)CC(C(=O)Nc1ccccc1)CC3 (racemic) [Example 199, (RS)-4-[(5-Fluoro-2-methoxyphenyl)amino]-N-phenyl-6,7,8,9-tetrahydro-5H-pyrimido[4,5-b]indole-6-carboxamide]
1310 | CS(=O)(=O)CCCNC(=O)C1CCc2[nH]c3ncnc(Nc4cccc(-n5cnnn5)c4)c3c2C1 (racemic) [Example 47, (RS)—N-[3-(Methylsulfonyl)propyl]-4-{[3-(1H-tetrazol-1-yl)phenyl]amino}-6,7,8,9-tetrahydro-5H-pyrimido[4,5-b]indole-6-carboxamide]
70 | CS(=O)(=O)CCCNC(=O)C1CCc2[nH]c3ncnc(Nc4ccccc4OC4CCOC4)c3c2C1 (racemic) [Example 167, (RS)—N-[3-(Methylsulfonyl)propyl]-4-{[2-(tetrahydrofuran-3-yloxy)phenyl]amino}-6,7,8,9-tetrahydro-5H-pyrimido[4,5-b]indole-6-carboxamide]
82 | CS(=O)(=O)CCCNC(=O)C1CCc2[nH]c3ncnc(Nc4ccc5c(c4)COC5=O)c3c2C1 (racemic) [Example 45, (RS)—N-[3-(Methylsulfonyl)propyl]-4-[(1-oxo-1,3-dihydro-2-benzofuran-5-yl)amino]-6,7,8,9-tetrahydro-5H-pyrimido[4,5-b]indole-6-carboxamide]
82 | CC(C)Oc1cc(F)ccc1Nc1ncnc2[nH]c3c(c12)CS(=O)(=O)CC3 [Example 84, N-(4-Fluoro-2-isopropoxyphenyl)-5,7,8,9-tetrahydrothiopyrano[3′,4′:4,5]pyrrolo[2,3-d]pyrimidin-4-amine 6,6-dioxide]
190 | CS(=O)(=O)CCCNC(=O)C1CCc2[nH]c3ncnc(Nc4ccccc4OCC4CC4)c3c2C1 (racemic) [Example 151, (RS)-4-{[2-(Cyclopropylmethoxy)phenyl]amino}-N-[3-(methylsulfonyl)propyl]-6,7,8,9-tetrahydro-5H-pyrimido[4,5-b]indole-6-carboxamide]
17000 | CCOC(=O)C1CCc2[nH]c3ncnc(Nc4cc(Cl)ccc4OC(C)C)c3c2C1 (racemic) [Example 177, (RS)-Ethyl 4-{[5-chloro-2-(propan-2-yloxy)phenyl]amino}-6,7,8,9-tetrahydro-5H-pyrimido[4,5-b]indole-6-carboxylate]
10 | COc1cc2[nH]c(=O)sc2cc1Nc1ncnc2[nH]c3c(c12)CC(F)(F)CC3 [Example 238, 6-[(6,6-Difluoro-6,7,8,9-tetrahydro-5H-pyrimido[4,5-b]indol-4-yl)amino]-5-methoxy-1,3-benzothiazol-2(3H)-one]
≥ 20000 | COc1ccc(C(F)(F)F)cc1Nc1ncnc2[nH]c3c(c12)CC(F)(F)CC3 [Example 145]
8350 | c1ccc2c(c1)CCN2c1ncnc2[nH]c3c(c12)CCCC3 [Example 120]
12 | CC(C)Oc1ccc(Cl)cc1Nc1ncnc2[nH]c3c(c12)CC(C(=O)NCCCS(C)(=O)=O)CC3 (racemic) [Example 150, (RS)-4-{[5-Chloro-2-(propan-2-yloxy)phenyl]amino}-N-[3-(methylsulfonyl)propyl]-6,7,8,9-tetrahydro-5H-pyrimido[4,5-b]indole-6-carboxamide]
3410 | CN1CCN(C(=O)C2CCc3[nH]c4ncnc(N5CCc6ccccc65)c4c3C2)CC1 (racemic) [Example 211, (RS)-[4-(2,3-Dihydro-1H-indol-1-yl)-6,7,8,9-tetrahydro-5H-pyrimido[4,5-b]indol-6-yl](4-methylpiperazin-1-yl)methanone]
35 | COc1cc(F)c(F)cc1Nc1ncnc2[nH]c3c(c12)CC(C(=O)NCCCS(C)(=O)=O)CC3 (racemic) [Example 161, (RS)-4-[(4,5-Difluoro-2-methoxyphenyl)amino]-N-[3-(methylsulfonyl)propyl]-6,7,8,9-tetrahydro-5H-pyrimido[4,5-b]indole-6-carboxamide]
751 | CCOC(=O)C1CCc2[nH]c3ncnc(Nc4ccccc4N4CCOCC4)c3c2C1 (racemic) [Example 172, (RS)-Ethyl 4-{[2-(morpholin-4-yl)phenyl]amino}-6,7,8,9-tetrahydro-5H-pyrimido[4,5-b]indole-6-carboxylate]
